From US6379400B1, “Dye compositions and methods of dyeing keratin fibers” (Wella Aktiengesellschaft, priority 1998, dated 2002)

| melting point | Structure (SMILES) |
| --- | --- |
| 85 to 87 °C | COCCNc1ccc([N+](=O)[O-])cc1 [Example 1, N-(2-methoxyethyl)-4-nitro-phenylamine] |
| 97 to 100 °C | COCCNc1ccc([N+](=O)[O-])cc1C [Example 2, N-(2-methoxyethyl)-2-methyl-4-nitrophenylamine] |
